What all share (type): cell-based
The test system of one experiment is SW48 cells (wt). In words: Cell viability assay (CellTiter-Glo), SW48 cells. Conditions: Homo sapiens, 72 h; SW48 cells, 3 days incubation, CellTiter-Glo luminescence; read-out: Inhibition of Cancerous Cells IC50 SW48 (wt). Here is the method: (§1) H358, H23, SW48, and AsPC-1 cells were cultured in RPMI 1640 media supplemented with 10% fetal bovine serum, streptomycin, and penicillin. Lovo and SW480 cells were cultured in DMEM media supplemented with 10% fetal bovine serum, streptomycin, and penicillin. The cell lines were plated in their respective medium supplemented with 2.5% fetal bovine serum, streptomycin, and penicillin. All cell lines were plated in white walled 96-well plates at 2,000 cells/well or 384-well plates at 500 cells/well, except Lovo, which were plated at 4,000 or 1,000 cells/well, respectively. The cells were incubated in DMSO (control) or a compound for 3 days at 37° C. under 5% CO2. A CELLTITER-GLO® reagent (100 μL) was then added to each well. After a 10 min incubation with shaking, luminescence was measured using an ENVISION® multimode plate reader.

A further experiment has as its system SW480 cells (G12V). In words: Cell viability assay (CellTiter-Glo), SW480 cells. Conditions: Homo sapiens, 72 h; SW480 cells, 3 days incubation, CellTiter-Glo luminescence; read-out: Inhibition of Cancerous Cells IC50 SW480 (G12V). Here is the method:
as §1
(ATP-based viability assays read luminescence as a measure of living cells.)

For another experiment, the system named is Lovo cells (G13D). In words: Cell viability assay (CellTiter-Glo), Lovo cells. Conditions: Homo sapiens, 72 h; Lovo cells, 3 days incubation, CellTiter-Glo luminescence; read-out: Inhibition of Cancerous Cells IC50 Lovo (G13D). Here is the method: as §1
A further experiment concerns H358 cells (G12C). Briefly: Cell viability assay (CellTiter-Glo), H358 cells. The following applies: Homo sapiens, NCI-H358, 72 h; H358 cells, 3 days incubation, CellTiter-Glo luminescence; read-out: Inhibition of Cancerous Cells IC50 H358 (G12C). How it is done: as §1

By IC50 is commonly meant the concentration that inhibits the measured activity by half. In the case of `COc1cc2c(N[C@H](C)c3cccc(Br)c3)nc(C)nc2cc1OCCCCCCCCCCCCC(=O)N[C@H](C(=O)N1C[C@H](O)C[C@H]1C(=O)NCc1ccc(-c2scnc2C)cc1)C(C)(C)C` [Compound D4, (2S,4R)-1-((S)-2-(13-((4-(((R)-1-(3-Bromophenyl)ethyl)amino)-6-methoxy-2-methylquinazolin-7-yl)oxy)tridecanamido)-3,3-dimethylbutanoyl)-4-hydroxy-N-(4-(4-methylthiazol-5-yl)benzyl)pyrrolidine-2-carboxamide], the half-maximal inhibitory concentration (IC50) in the experiment with SW48 cells (wt) is > 10000 nM; in the experiment on SW480 cells (G12V), 2700 nM; in the experiment with Lovo cells (G13D), > 10000 nM; with H358 cells (G12C) it was > 10000 nM.

As to `CNCc1ccccc1-c1csc([C@H](C)Nc2nc(C)nc3cc(OCCCCCCCN4CCC(c5cc(F)cc6c5CN(C5CCC(=O)N(C)C5=O)C6=O)CC4)c(OC)cc23)c1` (stereo partly drawn) [Compound A53, 3-(6-Fluoro-4-(1-(7-((6-methoxy-2-methyl-4-(((S)-1-(4-(2-((methylamino)-methyl)phenyl)thiophen-2-yl)ethyl)amino)quinazolin-7-yl)oxy)heptyl)piperidin-4-yl)-1-oxoisoindolin-2-yl)-1-methylpiperidine-2,6-dione], the half-maximal inhibitory concentration (IC50) in the experiment with SW48 cells (wt) is 170 nM; with SW480 cells (G12V), 170 nM; with Lovo cells (G13D) it was 68 nM; in the experiment on H358 cells (G12C), 230 nM.

Consider `COc1cc2c(N[C@H](C)c3cccc(Br)c3)nc(C)nc2cc1OCCCCCCCCCCCCCCCC(=O)NCc1scc2c1CN(C1CCC(=O)NC1=O)C2=O` (stereo partly drawn) [Compound A49, 16-((4-(((R)-1-(3-Bromophenyl)ethyl)amino)-6-methoxy-2-methylquinazolin-7-yl)oxy)-N-((5-(2,6-dioxopiperidin-3-yl)-4-oxo-5,6-dihydro-4H-thieno[3,4-c]pyrrol-1-yl)methyl)-hexadecanamide], for which the IC50 was 670 nM with SW48 cells (wt), 2800 nM with SW480 cells (G12V), 420 nM with Lovo cells (G13D) and > 10000 nM in the experiment with H358 cells (G12C).

On to `COc1cc2c(N[C@H](C)c3cccc(Br)c3)nc(C)nc2cc1OCCCCCN1CCN(C(=O)COc2cc(F)cc3c2CN(C2CCC(=O)NC2=O)C3=O)CC1` (stereo partly drawn) [Compound A14, 3-(4-(2-(4-(5-((4-(((R)-1-(3-Bromophenyl)ethyl)amino)-6-methoxy-2-methyl-quinazolin-7-yl)oxy)pentyl)piperazin-1-yl)-2-oxoethoxy)-6-fluoro-1-oxoisoindolin-2-yl)-piperidine-2,6-dione], for which the IC50 in the experiment on SW48 cells (wt) is 3100 nM; in the experiment on SW480 cells (G12V) it was 5000 nM; in the experiment on Lovo cells (G13D), 2800 nM; in the experiment with H358 cells (G12C), 4500 nM.

With `COc1cc2c(N[C@H](C)c3cccc(Br)c3)nc(C)nc2cc1OCCCCCCCCCN1CCC(c2cc3c(cc2F)C(=O)N(C2CCC(=O)NC2=O)C3)CC1` (stereo partly drawn) [Compound A23, 3-(5-(1-(9-((4-(((R)-1-(3-Bromophenyl)ethyl)amino)-6-methoxy-2-methyl-quinazolin-7-yl)oxy)nonyl)piperidin-4-yl)-6-fluoro-1-oxoisoindolin-2-yl)piperidine-2,6-dione], the IC50 in the experiment with SW48 cells (wt) was 300 nM; in the experiment with SW480 cells (G12V), 290 nM; with Lovo cells (G13D) it was 330 nM; in the experiment with H358 cells (G12C) it was 760 nM.

With `COc1ccc(C2=N[C@@H](c3ccc(Cl)cc3)[C@@H](c3ccc(Cl)cc3)N2C(=O)N2CCN(CC(=O)NCCCCCCCCCCCCOc3cc4nc(C)nc(N[C@H](C)c5cccc(Br)c5)c4cc3OC)CC2)c(OC(C)C)c1` [Compound C6, 2-(4-((4S,5R)-4,5-Bis(4-chlorophenyl)-2-(2-isopropoxy-4-methoxyphenyl)-4,5-dihydro-1H-imidazole-1-carbonyl)piperazin-1-yl)-N-(12-((4-(((R)-1-(3-bromophenyl)ethyl)-amino)-6-methoxy-2-methylquinazolin-7-yl)oxy)dodecyl)acetamide], the IC50 in the experiment with SW48 cells (wt), in the experiment on SW480 cells (G12V), with Lovo cells (G13D) and in the experiment with H358 cells (G12C) was > 10000 nM throughout.

For the origin of these results see patent US20240025863A1, “SOS1 PROTEIN DEGRADERS, PHARMACEUTICAL COMPOSITIONS THEREOF, AND THEIR THERAPEUTIC APPLICATIONS” (BioTheryX, Inc., priority 2020, published 2024).
